In ChEMBL document CHEMBL1909046, “DrugMatrix in vitro pharmacology data”:

Key:
[1] = biological target: T1, Receptor-type tyrosine-protein phosphatase C (Homo sapiens, UniProt P08575); design: species or system Escherichia coli;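 further: inhibition of CD45 enzyme activity measured using DiFMUP as substrate; in other assays of this panel Not Active means under 50% inhibition at 10 µM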
T1 sequence (P08575 whole entry): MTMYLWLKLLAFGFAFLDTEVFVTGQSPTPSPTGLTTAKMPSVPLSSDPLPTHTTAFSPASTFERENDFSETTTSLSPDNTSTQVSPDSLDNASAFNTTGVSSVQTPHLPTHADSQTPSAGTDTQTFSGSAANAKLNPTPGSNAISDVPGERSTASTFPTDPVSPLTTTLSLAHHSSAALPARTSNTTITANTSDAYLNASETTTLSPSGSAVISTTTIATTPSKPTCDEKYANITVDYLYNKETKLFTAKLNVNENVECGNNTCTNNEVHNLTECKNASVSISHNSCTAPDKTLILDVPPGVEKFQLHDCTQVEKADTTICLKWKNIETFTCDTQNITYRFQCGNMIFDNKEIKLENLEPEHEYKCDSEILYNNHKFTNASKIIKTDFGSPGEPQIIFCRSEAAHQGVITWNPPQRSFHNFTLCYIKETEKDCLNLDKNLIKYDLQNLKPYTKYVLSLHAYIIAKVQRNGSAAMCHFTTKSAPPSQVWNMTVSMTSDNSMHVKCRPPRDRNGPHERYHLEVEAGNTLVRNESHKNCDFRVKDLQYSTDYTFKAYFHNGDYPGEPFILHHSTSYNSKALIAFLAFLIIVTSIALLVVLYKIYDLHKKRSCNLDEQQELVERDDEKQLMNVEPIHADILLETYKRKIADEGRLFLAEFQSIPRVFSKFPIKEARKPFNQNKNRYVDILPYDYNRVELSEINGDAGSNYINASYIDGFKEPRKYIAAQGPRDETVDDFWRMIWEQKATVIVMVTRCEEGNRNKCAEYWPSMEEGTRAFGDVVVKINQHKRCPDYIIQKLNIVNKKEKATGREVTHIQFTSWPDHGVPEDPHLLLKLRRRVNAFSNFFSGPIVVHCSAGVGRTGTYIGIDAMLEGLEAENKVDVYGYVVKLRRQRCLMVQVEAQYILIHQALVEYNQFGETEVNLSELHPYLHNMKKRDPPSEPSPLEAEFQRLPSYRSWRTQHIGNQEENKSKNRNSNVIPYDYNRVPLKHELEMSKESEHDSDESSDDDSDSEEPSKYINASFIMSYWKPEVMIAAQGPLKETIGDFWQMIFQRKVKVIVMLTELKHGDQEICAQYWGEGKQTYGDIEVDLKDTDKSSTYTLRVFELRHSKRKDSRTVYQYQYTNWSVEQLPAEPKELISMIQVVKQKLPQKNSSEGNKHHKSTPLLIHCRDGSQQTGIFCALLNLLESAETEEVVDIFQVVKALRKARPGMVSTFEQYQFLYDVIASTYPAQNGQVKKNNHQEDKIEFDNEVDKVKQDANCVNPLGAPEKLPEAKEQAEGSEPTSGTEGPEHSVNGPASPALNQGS

[2] = biological target: C-C chemokine receptor type 2 (Homo sapiens, UniProt P41597); format: cell membranes, CHO-K1, Membrane; details: cho-k1; further: in other assays of this panel Not Active means under 50% inhibition at 10 µM
Acetylcholinesterase = Acetylcholinesterase (Homo sapiens, UniProt P22303); assay: DRUGMATRIX: Acetylcholinesterase enzyme inhibition (substrate: acetylthiocholine); format: cell-based, HEK293; details: hek293; Not Active = under 50% inhibition at 10 µM
[3] = DRUGMATRIX: GABAA, Muscimol, Central radioligand binding (ligand: [3H] Muscimol); format: cell membranes, Rattus norvegicus, Wistar, Brain, Membrane; details: Not Active = under 50% inhibition at 10 µM
[4] = biological target: Mitogen-activated protein kinase 14 (Homo sapiens, UniProt Q16539); design: species or system Escherichia coli;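 further: inhibition of p38alpha enzyme activity in a biochemical kinase assay, with myelin basic protein serving as substrate; in other assays of this panel Not Active means under 50% inhibition at 10 µM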
D(3) dopamine receptor = D(3) dopamine receptor (Homo sapiens, UniProt P35462); assay: DRUGMATRIX: Dopamine D3 radioligand binding (ligand: [3H] Spiperone); format: cell membranes, CHO, Membrane; details: cho
D(4) dopamine receptor = biological target: T2, D(4) dopamine receptor (Homo sapiens, UniProt P21917); assay: DRUGMATRIX: Dopamine D4.2 radioligand binding (ligand: [3H] Spiperone); format: cell membranes, CHO-K1, Membrane; details: cho-k1; Not Active = under 50% inhibition at 10 µM
T2 sequence (P21917 whole entry): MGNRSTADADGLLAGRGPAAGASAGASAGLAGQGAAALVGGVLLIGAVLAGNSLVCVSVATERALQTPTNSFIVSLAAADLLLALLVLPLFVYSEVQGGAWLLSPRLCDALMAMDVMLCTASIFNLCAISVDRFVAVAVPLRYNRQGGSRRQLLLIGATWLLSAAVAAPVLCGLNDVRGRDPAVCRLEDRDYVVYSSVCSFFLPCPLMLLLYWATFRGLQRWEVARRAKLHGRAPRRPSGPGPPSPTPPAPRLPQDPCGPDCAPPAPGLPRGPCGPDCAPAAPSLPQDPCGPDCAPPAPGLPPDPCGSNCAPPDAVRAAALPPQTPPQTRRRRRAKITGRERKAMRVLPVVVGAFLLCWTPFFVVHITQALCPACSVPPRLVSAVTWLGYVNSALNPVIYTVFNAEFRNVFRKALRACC

Caspase-1 = biological target: T3, Caspase-1 (Homo sapiens, UniProt P29466); design: species or system Escherichia coli;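 further: Caspase-1 enzyme inhibition assay with a peptide substrate; in other assays of this panel Not Active means under 50% inhibition at 10 µM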
T3 sequence (P29466 whole entry): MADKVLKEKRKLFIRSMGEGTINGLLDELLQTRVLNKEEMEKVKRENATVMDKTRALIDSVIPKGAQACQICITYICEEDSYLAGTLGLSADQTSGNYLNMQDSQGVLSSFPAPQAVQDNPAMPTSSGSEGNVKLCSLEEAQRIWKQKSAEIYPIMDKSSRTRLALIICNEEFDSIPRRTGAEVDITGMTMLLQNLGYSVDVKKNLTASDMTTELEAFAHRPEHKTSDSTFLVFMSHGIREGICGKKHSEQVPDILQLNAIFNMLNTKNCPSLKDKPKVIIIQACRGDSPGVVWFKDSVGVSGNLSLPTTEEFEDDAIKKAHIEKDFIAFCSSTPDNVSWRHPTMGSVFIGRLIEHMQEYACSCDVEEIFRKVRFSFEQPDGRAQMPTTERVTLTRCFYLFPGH

Cathepsin G = biological target: T4, Cathepsin G (Homo sapiens, UniProt P08311); format: tissue-based; details: neutrophil
T4 sequence (P08311 whole entry): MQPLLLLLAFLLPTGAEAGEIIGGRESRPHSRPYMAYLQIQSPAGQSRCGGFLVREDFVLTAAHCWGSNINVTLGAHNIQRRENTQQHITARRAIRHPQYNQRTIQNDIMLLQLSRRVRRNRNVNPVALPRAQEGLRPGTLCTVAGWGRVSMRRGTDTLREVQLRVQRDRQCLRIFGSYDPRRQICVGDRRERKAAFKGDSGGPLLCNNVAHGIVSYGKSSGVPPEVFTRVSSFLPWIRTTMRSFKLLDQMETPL

Chain of D(3) dopamine receptor (P35462 whole entry): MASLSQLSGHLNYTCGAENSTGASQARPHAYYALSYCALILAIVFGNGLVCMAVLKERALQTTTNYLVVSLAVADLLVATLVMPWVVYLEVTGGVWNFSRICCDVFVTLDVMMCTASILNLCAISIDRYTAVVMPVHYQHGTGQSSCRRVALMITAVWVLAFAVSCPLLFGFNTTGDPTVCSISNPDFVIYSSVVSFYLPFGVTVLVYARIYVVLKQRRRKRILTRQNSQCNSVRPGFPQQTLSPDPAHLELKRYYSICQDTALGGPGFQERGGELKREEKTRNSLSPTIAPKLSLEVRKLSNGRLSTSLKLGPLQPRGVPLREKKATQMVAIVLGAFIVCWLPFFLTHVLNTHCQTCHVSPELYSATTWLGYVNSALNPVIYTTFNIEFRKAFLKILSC
Chain of C-C chemokine receptor type 2 (P41597 whole entry): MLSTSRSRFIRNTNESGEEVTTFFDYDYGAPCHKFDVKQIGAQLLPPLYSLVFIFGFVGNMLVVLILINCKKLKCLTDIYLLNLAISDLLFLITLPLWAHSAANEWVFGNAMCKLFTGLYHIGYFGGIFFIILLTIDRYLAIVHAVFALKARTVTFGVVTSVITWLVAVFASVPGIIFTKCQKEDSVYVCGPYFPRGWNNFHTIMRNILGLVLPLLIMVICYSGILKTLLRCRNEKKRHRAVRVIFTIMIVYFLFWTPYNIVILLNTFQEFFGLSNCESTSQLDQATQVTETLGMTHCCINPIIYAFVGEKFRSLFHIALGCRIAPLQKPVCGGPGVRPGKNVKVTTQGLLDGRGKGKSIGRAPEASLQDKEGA
Chain of Mitogen-activated protein kinase 14 (Q16539 whole entry): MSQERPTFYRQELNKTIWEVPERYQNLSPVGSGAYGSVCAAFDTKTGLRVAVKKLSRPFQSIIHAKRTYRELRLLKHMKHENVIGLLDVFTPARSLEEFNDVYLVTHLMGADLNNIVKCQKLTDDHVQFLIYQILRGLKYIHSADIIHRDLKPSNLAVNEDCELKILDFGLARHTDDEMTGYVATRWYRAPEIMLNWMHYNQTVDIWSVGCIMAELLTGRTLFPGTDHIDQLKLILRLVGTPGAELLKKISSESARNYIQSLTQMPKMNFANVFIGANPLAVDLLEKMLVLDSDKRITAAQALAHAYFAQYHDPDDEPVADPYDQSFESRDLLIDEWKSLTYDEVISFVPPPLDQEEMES
Chain of Acetylcholinesterase (P22303 whole entry): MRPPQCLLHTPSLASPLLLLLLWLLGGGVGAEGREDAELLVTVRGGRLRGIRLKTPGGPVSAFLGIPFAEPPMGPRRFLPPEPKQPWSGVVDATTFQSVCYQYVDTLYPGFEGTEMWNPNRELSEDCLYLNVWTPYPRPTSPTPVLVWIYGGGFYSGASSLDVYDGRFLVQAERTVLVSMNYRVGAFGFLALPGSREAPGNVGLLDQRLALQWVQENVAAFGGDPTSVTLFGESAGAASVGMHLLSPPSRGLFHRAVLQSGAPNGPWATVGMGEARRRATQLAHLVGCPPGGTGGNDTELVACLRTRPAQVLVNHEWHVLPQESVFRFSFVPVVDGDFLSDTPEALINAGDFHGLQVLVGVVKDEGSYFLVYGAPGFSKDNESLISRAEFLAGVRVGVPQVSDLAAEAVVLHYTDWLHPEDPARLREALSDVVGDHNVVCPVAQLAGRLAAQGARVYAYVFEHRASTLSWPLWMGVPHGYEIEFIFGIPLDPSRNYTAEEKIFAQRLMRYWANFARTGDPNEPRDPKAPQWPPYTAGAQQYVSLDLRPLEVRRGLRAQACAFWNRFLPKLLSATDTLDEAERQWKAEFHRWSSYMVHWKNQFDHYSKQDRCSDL

OXALIPLATIN
Not Active: IC50 [1] | Ki [1] | IC50 [2] | Ki [2] | IC50 (Acetylcholinesterase) | Ki (Acetylcholinesterase) | IC50 [3] | Ki [3] | IC50 [4] | Ki [4] | IC50 (D(3) dopamine receptor) | Ki (D(3) dopamine receptor) | IC50 (D(4) dopamine receptor) | Ki (D(4) dopamine receptor) | IC50 (Caspase-1) | Ki (Caspase-1) | IC50 (Cathepsin G) | Ki (Cathepsin G)

NCC(=O)O [GLYCINE]
Not Active: IC50 [1] | IC50 [2] | IC50 (Acetylcholinesterase) | IC50 [3] | Ki [3] | IC50 [4] | IC50 (D(3) dopamine receptor) | IC50 (D(4) dopamine receptor) | IC50 (Caspase-1) | IC50 (Cathepsin G)

O=C1CCc2cc(OCCCCc3nnnn3C3CCCCC3)ccc2N1 [CILOSTAZOL]
Not Active: IC50 [1] | IC50 [2] | IC50 (Acetylcholinesterase) | IC50 [3] | Ki [3] | IC50 [4] | IC50 (D(3) dopamine receptor) | IC50 (D(4) dopamine receptor) | IC50 (Caspase-1) | IC50 (Cathepsin G)
